Like-named read-outs stand apart in the source and are kept apart here. Marks after values point to notes of the source that are not given here. Blank lines part the entries; values can stand above or below the compound they belong to.
Key:
S. aureus (29213 ATCC) = experiment: In-vitro MIC model (CLSI broth micro-dilution); format: cell-based; conditions: for MIC: Staphylococcus aureus, read-out: Comparative MIC
M. haemolytica = experiment: In-vitro MIC model (CLSI broth micro-dilution); format: cell-based, Mannheimia haemolytica; conditions: for MIC: Mannheimia haemolytica, read-out: Comparative MIC
P. multocida [1] = experiment: In-vitro MIC model (CLSI broth micro-dilution); format: cell-based, Pasteurella multocida; conditions: for MIC: Pasteurella multocida, read-out: Comparative MIC
P. multocida 46572 = experiment: In vivo mouse lung infection challenge model (murine); parameters: species or system CD-1 female mice; conditions: 46572, sc, 20 mg/kg, 240 h
Protocol: The challenge organism was P. multocida 46572. Target challenge concentration was 5×10^2 CFU/mouse. Isolated colonies from overnight growth (37° C. with 5% CO2) on trypticase soy agar (TSA II) blood plates were transferred to room temperature Brain Heart Infusion Broth (BHIB). The broth culture was incubated 3.5-4 hours to approximately mid-log phase of growth, as measured by forward light scatter at 600 nm (OD600, 0.200). The culture was centrifuged to collect the bacterial pellet. The pellet was re-suspended in BHIB and adjusted to provide an approximate concentration of 2.7 log^10 colony forming units (CFU) in 0.04 mL at the highest concentration. The challenge inoculum concentration was confirmed by serial dilutions of the inoculum for CFU enumeration. On Day −5, CD-1 female mice were received. Mice were given standard rodent diet and water ad libitum. On Day 0, bacterial inoculum (0.04 mL) was administered to each mouse (n=36) intranasally. Compounds of the invention were dosed at 20 mg/kg (0.1 mL) in a buffered (˜pH 5.4) propylene glycol, monothioglycerol and water solution by subcutaneous injection. Animals were observed from Days 1-10. The study was terminated on Day 10. In addition, some treatment groups were sampled at 6, 24, and 48 hours post bacterial challenge for RNA sequence analysis of lung tissue.
The murine efficacy model (P. multocida challenge) was optimized, and the treatment group size was powered to be able to observe statistically significant improvement of survival to expected ranges for immunomodulatory compounds. The experimental design was a randomized complete block design. Mice were individually identified and treatment groups comingled within a cage, with every treatment group equally represented across cages. Mortality was the primary variable. Mortality data was analyzed using a generalized mixed model with fixed effect of treatment and random effect of block. Survival time was also analyzed using the SAS PHREG (survival analysis) procedure to examine whether there were significant differences between treatment groups and the control group. Numerous compounds of the invention and M9 (positive control) were tested in this model at a dose of 20 mg/kg (Table 3). Typical percent survival for no treatment control is in the range of 0-20% based on study to study variation in challenge inoculum and rate of infection. […] Mouse survival for M9 was about 90-100%, further supporting its residual antibacterial properties against the bacterial strain. Harmonized survival accounts for % survival relative to vehicle (“−” control) and M9 (“+” control)) survival data (Table 3).

IL-1β = experiment: Whole blood assay, LPS stimulation, MSD cytokine detection; format: cell-based, bovine; conditions: fresh whole bovine blood, LPS stimulation; drug concentration giving overstimulation (OS) of IL-1β
TNF-α = experiment: as above; format: cell-based; conditions: fresh whole bovine blood
IL-6 [2] = experiment: Plasma IL-6 biomarker in bovine M. haemolytica challenge
P. multocida [3] = experiment: Murine P. multocida intranasal challenge study, survival; format: in vivo, mice; conditions: 5×10^3 CFU/mouse; subcutaneous 18 hours after challenge; tulathromycin 16 mg/kg, M9 32 mg/kg, ceftiofur 9 mg/kg
IL-6 [4] = experiment: Whole blood assay, LPS stimulation, MSD cytokine detection; format: cell-based; conditions: Bos taurus, fresh whole bovine blood
[5] = system: M. haemolytica (OSU-012103-BHI); conditions: inhaled or nasal
[6] = system: Lung bacteria isolated at necropsy; experiment: MIC of recovered isolates, natural bovine respiratory disease study
H. somni (A700025K) = experiment: In-vitro MIC model (CLSI broth micro-dilution); format: cell-based, Histophilus somni
[7] = system: BRD pathogens, M. haemolytica and P. multocida; experiment: In-vitro MIC model, BRD pathogen screening panel; format: cell-based, Mannheimia haemolytica; Pasteurella multocida; conditions: at least one BRD strain
[8] = M. haemolytica 46571, bovine efficacy challenge strain
[9] = P. multocida 46572, murine efficacy challenge strain
[10] = H. somni (25) lung isolates at necropsy
[11] = M. haemolytica (116) lung isolates at necropsy
[12] = P. multocida (33) lung isolates at necropsy

- Comparative MIC (S. aureus (29213 ATCC)): >64 µg/mL
- Comparative MIC (P. multocida [1]; P. multocida 43137): >64 µg/mL
- Comparative MIC (P. multocida [1]; [9]): >64 µg/mL
SMILES: CCCNC[C@]1(O)[C@H](C)O[C@@H](O[C@H]2[C@H](C)[C@@H](O[C@@H]3O[C@H](C)C[C@H](N(C)C(=O)N4CCN(CC)CC4)[C@H]3Oc3ccc(OC)c(OCC)c3)[C@](C)(O)C[C@@H](C)CN[C@H](C)[C@@H](O)[C@](C)(O)[C@@H](CC)OC(=O)[C@@H]2C)C[C@@]1(C)OC [Example G-3]
- Comparative MIC (M. haemolytica; M. haemolytica 12726): >64 µg/mL
- Comparative MIC (M. haemolytica; M. haemolytica 33396): >64 µg/mL
- Comparative MIC (M. haemolytica; [8]): >64 µg/mL

- Comparative MIC (S. aureus (29213 ATCC)): >64 µg/mL
- Comparative MIC (P. multocida [1]; P. multocida 43137): >64 µg/mL
- Comparative MIC (P. multocida [1]; [9]): >64 µg/mL
SMILES: CC[C@H]1OC(=O)[C@H](C)[C@@H](O)[C@H](C)[C@@H](O[C@@H]2O[C@H](C)C[C@H](N(C)C(=O)N(C)C3CC3)[C@H]2Oc2ccccc2)[C@](C)(O)C[C@@H](C)CN(C)[C@H](C)[C@@H](O)[C@]1(C)O [Example C-27]
- Comparative MIC (M. haemolytica; M. haemolytica 12726): >64 µg/mL
- Comparative MIC (M. haemolytica; M. haemolytica 33396): >64 µg/mL
- Comparative MIC (M. haemolytica; [8]): >64 µg/mL

SMILES: CC[C@H]1OC(=O)[C@H](C)[C@@H](O)[C@H](C)[C@@H](O[C@@H]2O[C@H](C)C[C@H](NC)[C@H]2Oc2ccc(OC)cc2)[C@](C)(O)C[C@@H](C)CN[C@H](C)[C@@H](O)[C@]1(C)O [Example B-6, (2R,3S,4R,5R,8R,10R,11R,12S,13S,14R)-2-ethyl-3,4,10,13-tetrahydroxy-11-(((2S,3R,4S,6R)-3-(4-methoxyphenoxy)-6-methyl-4-(methylamino)tetrahydro-2H-pyran-2-yl)oxy)-3,5,8,10,12,14-hexamethyl-1-oxa-6-azacyclopentadecan-15-one]
- MIC (S. aureus (29213 ATCC)): > 64 µg/mL
- % Survival (P. multocida 46572): 1%
- MIC (M. haemolytica; M. haemolytica 12726): > 64 µg/mL
- MIC (M. haemolytica; M. haemolytica 33396): > 64 µg/mL
- MIC (M. haemolytica; [8]): > 64 µg/mL
- MIC (P. multocida [1]; P. multocida 43137): > 64 µg/mL
- MIC (P. multocida [1]; [9]): > 64 µg/mL

- Comparative MIC (S. aureus (29213 ATCC)): >64 µg/mL
- IC50 (TNF-α): 30 µM
- Comparative MIC (P. multocida [1]; P. multocida 43137): >64 µg/mL
- Comparative MIC (P. multocida [1]; [9]): >64 µg/mL
SMILES: CCCNC[C@]1(O)[C@H](C)O[C@@H](O[C@H]2[C@H](C)[C@@H](O[C@@H]3O[C@H](C)C[C@H](NC)[C@H]3Oc3cccc(OCC)c3)[C@](C)(O)C[C@@H](C)CN[C@H](C)[C@@H](O)[C@](C)(O)[C@@H](CC)OC(=O)[C@@H]2C)C[C@@]1(C)OC [Example E-13]
- IL-1ß OS of LPS (IL-1β): 40 µM
- Comparative MIC (M. haemolytica; M. haemolytica 12726): >64 µg/mL
- Comparative MIC (M. haemolytica; M. haemolytica 33396): >64 µg/mL
- Comparative MIC (M. haemolytica; [8]): >64 µg/mL

SMILES: CCCNC[C@]1(O)[C@H](C)O[C@@H](O[C@H]2[C@H](C)[C@@H](O[C@@H]3O[C@H](C)C[C@H](N(C)C)[C@H]3O)[C@](C)(O)C[C@@H](C)CN[C@H](C)[C@@H](O)[C@](C)(O)[C@@H](CC)OC(=O)[C@@H]2C)C[C@@]1(C)OC [tulathromycin, (2R,3S,4R,5R,8R,10R,11R,12S,13S,14R)-11-(((2S,3R,4S,6R)-4-(dimethylamino)-3-hydroxy-6-methyltetrahydro-2H-pyran-2-yl)oxy)-2-ethyl-3,4,10-trihydroxy-13-(((2R,4R,5S,6S)-5-hydroxy-4-methoxy-4,6-dimethyl-5-((propylamino)methyl)tetrahydro-2H-pyran-2-yl)oxy)-3,5,8,10,12,14-hexamethyl-1-oxa-6-azacyclopentadecan-15-one]
- IL-6 levels (IL-6 [2]): significantly reduced
- Survival at Day 7 (P. multocida [3]): about 80%

SMILES: CCCNC[C@]1(O)[C@H](C)O[C@@H](O[C@H]2[C@H](C)[C@@H](O[C@@H]3O[C@H](C)C[C@H](NC)[C@H]3Oc3ccccc3)[C@](C)(O)C[C@@H](C)CN[C@H](C)[C@@H](O)[C@](C)(O)[C@@H](CC)OC(=O)[C@@H]2C)C[C@@]1(C)OC [Example E-112, (2R,3S,4R,5R,8R,10R,11R,12S,13S,14R)-2-ethyl-3,4,10-trihydroxy-13-(((2R,4R,5S,6S)-5-hydroxy-4-methoxy-4,6-dimethyl-5-((propylamino)methyl)tetrahydro-2H-pyran-2-yl)oxy)-3,5,8,10,12,14-hexamethyl-11-(((2S,3R,4S,6R)-6-methyl-4-(methylamino)-3-phenoxytetrahydro-2H-pyran-2-yl)oxy)-1-oxa-6-azacyclopentadecan-15-one]
- MIC (S. aureus (29213 ATCC)): > 64 µg/mL
- IL-1ß OS of LPS (IL-1β): 80 µM
- IC50 (IL-6 [4]): 40 µM
- % Survival (P. multocida 46572): 53%
- IC50 (TNF-α; Bos taurus): 10 µM
- MIC (M. haemolytica; M. haemolytica 12726): > 64 µg/mL
- MIC (M. haemolytica; M. haemolytica 33396): > 64 µg/mL
- MIC (M. haemolytica; [8]): > 64 µg/mL
- MIC (P. multocida [1]; P. multocida 43137): > 64 µg/mL
- MIC (P. multocida [1]; [9]): > 64 µg/mL
- lung lesion scores ([5]; 0.01 mg/kg): 39
- lung lesion scores ([5]; 0.05 mg/kg): 41
- lung lesion scores ([5]; 0.1 mg/kg): 27

SMILES: CCCN1C[C@H](C)[C@@H](O)[C@](C)(O)[C@@H](CC)OC(=O)[C@H](C)[C@@H](O[C@H]2C[C@@](C)(OC)[C@@H](O)[C@H](C)O2)[C@H](C)[C@@H](O[C@@H]2O[C@H](C)C[C@H](N(C)C)[C@H]2O)[C@](C)(O)C[C@H]1C [gamithromycin (Zactran)]
- MIC50 [6, 10]: 0.25 µg/mL
- MIC90 [6, 10]: 2 µg/mL
- MIC50 [6, 11]: 1 µg/mL
- MIC90 [6, 11]: >64 µg/mL
- MIC50 [6, 12]: 1 µg/mL
- MIC90 [6, 12]: >64 µg/mL

- MIC, H. somni strains (H. somni (A700025K)): 0.25 to 8 µg/mL
- MIC, P. multocida strains (P. multocida [1]; screening panel strains): 1 to 2 µg/mL
SMILES: CCCN1C[C@H](C)[C@@H](O)[C@](C)(O)[C@@H](CC)OC(=O)[C@H](C)[C@@H](O[C@H]2C[C@@](C)(OC)[C@@H](O)[C@H](C)O2)[C@H](C)[C@@H](O[C@@H]2O[C@H](C)C[C@H](N(C)C)[C@H]2O)[C@](C)(O)C[C@H]1C [gamithromycin, reference compound]
- MIC, M. haemolytica strains (M. haemolytica; screening panel strains): 0.5 to 1 µg/mL

SMILES: CCCNC[C@]1(O)[C@H](C)O[C@@H](O[C@H]2[C@H](C)[C@@H](O[C@@H]3O[C@H](C)C[C@H](NC)[C@H]3Oc3ccc(OC)cc3)[C@](C)(O)C[C@@H](C)CN[C@H](C)[C@@H](O)[C@](C)(O)[C@@H](CC)OC(=O)[C@@H]2C)C[C@@]1(C)OC [Example E-2, (2R,3S,4R,5R,8R,10R,11R,12S,13S,14R)-2-ethyl-3,4,10-trihydroxy-13-(((2R,4R,5S,6S)-5-hydroxy-4-methoxy-4,6-dimethyl-5-((propylamino)methyl)tetrahydro-2H-pyran-2-yl)oxy)-11-(((2S,3R,4S,6R)-3-(4-methoxyphenoxy)-6-methyl-4-(methylamino)tetrahydro-2H-pyran-2-yl)oxy)-3,5,8,10,12,14-hexamethyl-1-oxa-6-azacyclopentadecan-15-one]
- IL-1ß OS of LPS (IL-1β): 32 µM
- % Survival (P. multocida 46572): 36%
- IC50 (TNF-α; Bos taurus): 6 µM
- MIC flag at the example number (Table E) [7]: E-2* (MIC ≤ 64 μg/mL for at least one BRD strain)

SMILES: CO/N=C(\C(=O)N[C@@H]1C(=O)N2C(C(=O)O)=C(CSC(=O)c3ccco3)CS[C@H]12)c1csc(N)n1 [ceftiofur]
- Survival at Day 7 (P. multocida [3]): ~90%

— patent US12390441B2, “Immunomodulating o-het/aryl azalides” (Zoetis Services LLC, priority 2020, dated 2025)
